# Source: patent US10874709B2, “Conjugate of salicylic acid and peptide” (CAREGEN CO., LTD., priority 2017, dated 2020)
# Ends that are not written are not given here.
# Columns and labels:
# [1] = test system: TNF-α, IL-6, IL-1b, and COX-2; experiment: Anti-inflammatory effect, Propionibacterium acnes-induced inflammatory cytokine mRNA by RT-PCR; assay type: cell-based; settings: keratinocyte, 50 μg/ml Propionibacterium acnes, 50 μM, 24 hours
# Procedure: Anti-inflammatory effects of the compounds of the present disclosure were examined using Propionibacterium acnes. To this end, keratinocyte was seeded in a 6-well plate at a density of 300,000 cells per well, and then incubated in a DMEM culture medium (Gibco, USA) containing 10% FBS for 24 hours under conditions of 37° C. and 5% CO2. After replacing the medium by a fresh medium, the cells were treated with 50 μg/ml of Propionibacterium acnes, and then the treated Propionibacterium acnes was treated with each 50 μM of the compound 1 and the compound 3 of the present disclosure and salicylic acid used as the positive control, followed by incubation for 24 hours under the same conditions as above. RNA was isolated from the cells, and cDNA was synthesized using a cDNA synthesis kit (Intron, Korea). PCR premix (Intron, Korea) and primers for each of TNF-α, IL-6, IL-1b, and COX-2 in Table 3 below were used to perform PCR. mRNA levels of TNF-α, IL-6, IL-1 b and COX-2 were determined by 5% agarose gel electrophoresis.
# [2] = test system: HaCaT keratinocyte cell line; experiment: Keratinocyte growth, sulforhodamine B colorimetric assay; assay type: cell-based; settings: 50 μM, 72 hours, SRB, absorbance 560 nm
# Procedure: (Cancer Res. 48:4266(1988)) […] The cultured cell line was detached from the bottom of the culture plate using a 1% trypsin solution, and only cell precipitate was collected by centrifugation. The cell precipitate was suspended in DMEM without FBS, and then cultured for 24 hours under conditions of 37° C. and 5% CO2. 24 hours later, the medium was replaced by the same medium from which serum was completely removed. A blank sample in which the cell precipitate was dissolved sterile in 10% DMSO was prepared for standardization. Each of the compound 1 to the compound 4 (50 μM) of the present disclosure, salicylic acid (50 μM), and EGF (100 nM) as a positive control were treated. Incubation was carried out under the same conditions as above for 72 hours. After completing the incubation, each culture supernatant was removed and cells were fixed with ethanol and washed with phosphate buffer saline (PBS) three times. After removing the washing solution, the cells were treated with a colorimetric SRB solution, and then sufficiently washed with 1% acetic acid. The cells were observed under a microscope to examine living cells. Absorbance at UV 560 nm was measured to determine cell viability.
# [3] = Test of solubility in water; assay type: physicochemical; settings: distilled water, concentration of 10 mg/ml
# [4] = test system: collagen, elastin, and fibronectin; experiment: Extracellular matrix mRNA expression by RT-PCR; assay type: cell-based; settings: NIH3T3 fibroblast, 50 μM, 72 hours, as compared with salicylic acid
# Procedure: (§1) Effects of the compounds of the present disclosure on extracellular matrix expression were examined using NIH3T3 fibroblast. To this end, NIH3T3 fibroblast was seeded in a 6-well plate at a density of 300,000 cells per well, and then incubated in a DMEM culture medium (Gibco, USA) containing 10% FBS for 24 hours under conditions of 37° C. and 5% CO2. The cultured cell line was detached from the bottom of the culture plate using a 1% trypsin solution, and a cell precipitate was collected by centrifugation. The cell precipitate was suspended in DMEM without FBS, and then cultured for 24 hours under conditions of 37° C. and 5% CO2. 24 hours later, the medium was replaced by the same medium from which serum was completely removed. A blank sample in which the cell precipitate was dissolved sterile in 10% DMSO was prepared for standardization. Each of the compound 1 and the compound 3 of the present disclosure, and salicylic acid as a positive control were treated at a concentration of 50 μM. Incubation was carried out under the same conditions as above for 72 hours. […]
# Meanwhile, RNA was isolated from the cells treated in the same manner as the above experiment, and then cDNA was synthesized using a cDNA synthesis kit (Intron, Korea). […] Thereafter, mRNA levels of collagen, elastin, and fibronectin were determined by 5% agarose gel electrophoresis.
# Propionibacterium acnes = experiment: Antibacterial effect, paper disc clear zone on agar plate; assay type: cell-based; settings: paper discs soaked with 200 mM, 3 days
# Procedure: Antibacterial effects of the compounds synthesized in Example <1-2> were examined using Propionibacterium acnes. To this end, Propionibacterium acnes was first cultured on an agar plate. Paper discs were soaked with each 200 mM of the compound 1 to the compound 4 synthesized in Example <1-2> and salicylic acid, and then the paper disc soaked with the sample was placed on the agar plate on which Propionibacterium acnes had been cultured, followed by incubation. 3 days later, the size of a clear zone with no microbial growth was measured to determine the antibacterial effect of each compound.
# [5] = test system: collagen, elastin, and fibronectin; experiment: Extracellular matrix protein expression by immunocytostaining; assay type: cell-based; settings: NIH3T3 fibroblast, 50 μM, 72 hours, as compared with salicylic acid
# Procedure: as §1, with “hours. Thereafter, to examine collagen, elastin, and fibronectin expression by immunocytostaining, cells were fixed with 4% paraformaldehyde, permeated with 0.5% Triton X-100, and blocked with 3% BSA.” for “hours.”
solubility in water [3],Molecule,expression of inflammatory cytokines induced by Propionibacterium acnes [1],growth of keratinocytes [2],"mRNA expression levels of collagen, elastin, and fibronectin [4]",antibacterial effect (size of clear zone) (Propionibacterium acnes),"protein expression levels of collagen, elastin, and fibronectin [5]"
hardly dissolved in water,"O=C(O)c1ccccc1O [salicylic acid, 2-hydroxybenzoic acid]",hardly inhibited,inhibited growth of keratinocytes due to toxicity,,,
,compound 3: salicylic acid linked via covalent bond to peptide of SEQ ID NO: 3 (KLKKTETQ) (also: salicylic acid linked via covalent bond),remarkably reduced,,remarkably increased,remarkably increased antibacterial effects,remarkably increased
